From US12466812B2, “Pyridinyltriazine derivative having protein kinase inhibitory activity, and pharmaceutical composition for preventing, ameliorating, or treating cancer comprising same” (KOREA INSTITUTE OF SCIENCE AND TECHNOLOGY, priority 2019, dated 2025)

Columns and labels:
PHKg1 = PHKg1 (Homo sapiens, UniProt Q16816); test: Kinase panel biochemical assay; details: single concentration of 1 μM; panel of 369 kinases; read-out: kinase activity inhibited (%), PHKg1
Description: (§1) In order to measure the inhibitory activity (%) against protein kinases of the compounds of the present invention, biochemical assays were performed on a full kinase panel composed of 369 kinases.

FGFR3 = FGFR3 (Homo sapiens, UniProt P22607); test: Kinase panel biochemical assay; details: single concentration of 1 μM; panel of 369 kinases; read-out: kinase activity inhibited (%), FGFR3
Description: as §1

IRAK1 = IRAK1 (Homo sapiens, UniProt P51617); test: Kinase panel biochemical assay; details: single concentration of 1 μM; panel of 369 kinases; read-out: kinase activity inhibited (%), IRAK1
Description: as §1

MPSK1 = MPSK1 (Homo sapiens, UniProt O75716); test: Kinase panel biochemical assay; details: single concentration of 1 μM; panel of 369 kinases; read-out: kinase activity inhibited (%), MPSK1
Description: as §1

CLK2 = CLK2 (Homo sapiens, UniProt P49760); test: Kinase panel biochemical assay; details: single concentration of 1 μM; panel of 369 kinases; read-out: kinase activity inhibited (%), CLK2
Description: as §1

CDK6 = CDK6 (Homo sapiens, UniProt Q00534); test: Kinase panel biochemical assay; details: single concentration of 1 μM; panel of 369 kinases; read-out: kinase activity inhibited (%), CDK6
Description: as §1

FMS = FMS (Homo sapiens, UniProt P07333); test: Kinase panel biochemical assay; details: single concentration of 1 μM; panel of 369 kinases; read-out: kinase activity inhibited (%), FMS
Description: as §1

PCTAIRE1 = PCTAIRE1 (Homo sapiens, UniProt Q00536); test: Kinase panel biochemical assay; details: single concentration of 1 μM; panel of 369 kinases; read-out: kinase activity inhibited (%), PCTAIRE1
Description: as §1

TAO2 = TAO2 (Homo sapiens, UniProt Q9UL54); test: Kinase panel biochemical assay; details: single concentration of 1 μM; panel of 369 kinases; read-out: kinase activity inhibited (%), TAO2
Description: as §1

ROS = ROS (Homo sapiens, UniProt P08922); test: Kinase panel biochemical assay; details: single concentration of 1 μM; panel of 369 kinases; read-out: kinase activity inhibited (%), ROS
Description: as §1

[1] = system: UMUC3 (bladder cancer cell line); test: Pan-FGFR mutant cellular activity; format: cell-based; details: Homo sapiens, Table 4
Description: (§2) The inhibitory activity against pan-FGFR mutants of the compounds synthesized in Examples 1, 8, 13, 22, and 24 was measured, the inhibitory activity on each of enzymatic activity and cellular activity was evaluated, and the results are shown in Tables 3 and 4 below.

[2] = system: J82 (bladder cancer cell line); test: Pan-FGFR mutant cellular activity; format: cell-based; details: Table 4
Description: as §2

AN3-CA = test: Pan-FGFR mutant cellular activity; format: cell-based; details: Homo sapiens, mutant cell, Table 4, read-out: GI50, AN3-CA (breast cancer cell line)
Description: as §2

[3] = system: KMS-11 (myeloma cell line); test: Pan-FGFR mutant cellular activity; format: cell-based; details: Homo sapiens, Table 4
Description: as §2

CYP2C9 = CYP2C9 (Homo sapiens, UniProt P11712); test: Inhibitory activity against CYP metabolic enzyme; format: in vitro ADME
Description: (§3) In order to determine whether or not there is a possibility that the compounds synthesized in Examples 1, 22, and 24 of the present invention can cause side effects of drug interaction, the rate (%) of inhibition against 5 major metabolic enzymes (CYP1A2, CYP2C9, CYP2C19, CYP2D6, and CYP3A4) among CYPs (cytochrome P450), which are enzymes involved in oxidative metabolism of drugs, was measured. […] That is, it can be seen that the compound of the present invention has a low possibility of causing side effects of drug interaction.

CYP2D6 = CYP2D6 (Homo sapiens, UniProt P10635); test: Inhibitory activity against CYP metabolic enzyme; format: in vitro ADME
Description: as §3

CYP2C19 = CYP2C19 (Homo sapiens, UniProt P33261); test: Inhibitory activity against CYP metabolic enzyme; format: in vitro ADME
Description: as §3

CYP1A2 = target: T1, CYP1A2 (Homo sapiens, UniProt P05177); test: Inhibitory activity against CYP metabolic enzyme; format: in vitro ADME
T1 sequence (P05177 1-516): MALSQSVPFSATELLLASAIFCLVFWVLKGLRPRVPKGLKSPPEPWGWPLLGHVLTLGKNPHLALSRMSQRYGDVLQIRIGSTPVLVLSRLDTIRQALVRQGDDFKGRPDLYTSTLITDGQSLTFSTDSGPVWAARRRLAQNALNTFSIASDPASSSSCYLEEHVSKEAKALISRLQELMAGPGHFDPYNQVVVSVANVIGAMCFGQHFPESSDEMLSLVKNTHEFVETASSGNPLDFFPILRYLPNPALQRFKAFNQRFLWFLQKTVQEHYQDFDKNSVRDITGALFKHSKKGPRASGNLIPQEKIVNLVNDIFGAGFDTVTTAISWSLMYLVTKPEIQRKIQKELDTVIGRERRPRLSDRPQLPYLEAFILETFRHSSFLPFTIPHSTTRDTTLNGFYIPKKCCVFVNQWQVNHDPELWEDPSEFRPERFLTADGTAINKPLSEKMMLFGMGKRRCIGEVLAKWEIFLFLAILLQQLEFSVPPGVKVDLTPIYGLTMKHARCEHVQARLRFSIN
Description: as §3

CYP3A4 = CYP3A4 (Homo sapiens, UniProt P08684); test: Inhibitory activity against CYP metabolic enzyme; format: in vitro ADME
Description: as §3

FGFR3 mutant (K650E) = FGFR3 mutant (K650E) (Homo sapiens, UniProt P22607, K650E); test: Pan-FGFR mutant enzymatic activity; format: biochemical; details: mutant enzyme
Description: as §2

FGFR2 mutant (V564F) = FGFR2 mutant (V564F) (Homo sapiens, UniProt P21802, V564F); test: Pan-FGFR mutant enzymatic activity; format: biochemical; details: mutant enzyme
Description: as §2

FGFR3 mutant (K650M) = FGFR3 mutant (K650M) (Homo sapiens, UniProt P22607, K650M); test: Pan-FGFR mutant enzymatic activity; format: biochemical; details: mutant enzyme
Description: as §2

FGFR2 mutant (N549H) = FGFR2 mutant (N549H) (Homo sapiens, UniProt P21802, N549H); test: Pan-FGFR mutant enzymatic activity; format: biochemical; details: mutant enzyme
Description: as §2

FGFR3 mutant (V555M) = FGFR3 mutant (V555M) (Homo sapiens, UniProt P22607, V555M); test: Pan-FGFR mutant enzymatic activity; format: biochemical; details: mutant enzyme
Description: as §2

Sequence of FGFR3 mutant (V555M) (P22607 23-806 V555M): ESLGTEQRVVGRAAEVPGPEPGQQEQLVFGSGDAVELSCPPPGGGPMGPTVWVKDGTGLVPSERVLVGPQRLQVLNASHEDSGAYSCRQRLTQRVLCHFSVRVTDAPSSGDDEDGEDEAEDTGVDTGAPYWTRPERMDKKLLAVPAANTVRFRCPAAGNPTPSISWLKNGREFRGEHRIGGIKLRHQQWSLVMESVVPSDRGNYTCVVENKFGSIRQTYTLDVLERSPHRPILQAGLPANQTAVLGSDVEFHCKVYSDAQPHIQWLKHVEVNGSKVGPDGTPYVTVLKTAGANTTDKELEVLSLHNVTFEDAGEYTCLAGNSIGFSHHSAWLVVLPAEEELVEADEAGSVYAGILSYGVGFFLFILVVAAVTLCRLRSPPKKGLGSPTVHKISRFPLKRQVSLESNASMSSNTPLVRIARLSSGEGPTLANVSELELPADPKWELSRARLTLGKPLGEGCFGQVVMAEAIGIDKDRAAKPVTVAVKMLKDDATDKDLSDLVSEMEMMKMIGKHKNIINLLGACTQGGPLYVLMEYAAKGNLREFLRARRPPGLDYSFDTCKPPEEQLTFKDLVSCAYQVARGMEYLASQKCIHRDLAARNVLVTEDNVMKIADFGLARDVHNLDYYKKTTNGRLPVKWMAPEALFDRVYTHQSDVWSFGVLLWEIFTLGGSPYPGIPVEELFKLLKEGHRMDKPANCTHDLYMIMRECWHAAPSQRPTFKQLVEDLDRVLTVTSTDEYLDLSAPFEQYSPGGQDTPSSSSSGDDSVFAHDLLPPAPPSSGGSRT
Sequence of CYP2C9 (P11712 whole entry): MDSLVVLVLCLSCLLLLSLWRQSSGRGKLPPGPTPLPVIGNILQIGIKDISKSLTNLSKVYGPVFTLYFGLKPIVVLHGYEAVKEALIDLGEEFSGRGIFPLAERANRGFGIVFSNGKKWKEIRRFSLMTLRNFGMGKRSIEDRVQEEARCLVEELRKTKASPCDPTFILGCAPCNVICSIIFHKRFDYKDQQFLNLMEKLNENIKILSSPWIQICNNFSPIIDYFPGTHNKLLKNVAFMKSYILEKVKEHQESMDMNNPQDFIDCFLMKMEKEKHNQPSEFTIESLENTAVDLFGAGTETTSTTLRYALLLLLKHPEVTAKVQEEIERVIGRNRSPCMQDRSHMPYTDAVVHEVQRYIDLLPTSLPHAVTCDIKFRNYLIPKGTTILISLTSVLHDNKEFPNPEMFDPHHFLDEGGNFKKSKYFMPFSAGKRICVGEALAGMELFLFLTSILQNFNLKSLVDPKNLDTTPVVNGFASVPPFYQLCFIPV
Sequence of IRAK1 (P51617 whole entry): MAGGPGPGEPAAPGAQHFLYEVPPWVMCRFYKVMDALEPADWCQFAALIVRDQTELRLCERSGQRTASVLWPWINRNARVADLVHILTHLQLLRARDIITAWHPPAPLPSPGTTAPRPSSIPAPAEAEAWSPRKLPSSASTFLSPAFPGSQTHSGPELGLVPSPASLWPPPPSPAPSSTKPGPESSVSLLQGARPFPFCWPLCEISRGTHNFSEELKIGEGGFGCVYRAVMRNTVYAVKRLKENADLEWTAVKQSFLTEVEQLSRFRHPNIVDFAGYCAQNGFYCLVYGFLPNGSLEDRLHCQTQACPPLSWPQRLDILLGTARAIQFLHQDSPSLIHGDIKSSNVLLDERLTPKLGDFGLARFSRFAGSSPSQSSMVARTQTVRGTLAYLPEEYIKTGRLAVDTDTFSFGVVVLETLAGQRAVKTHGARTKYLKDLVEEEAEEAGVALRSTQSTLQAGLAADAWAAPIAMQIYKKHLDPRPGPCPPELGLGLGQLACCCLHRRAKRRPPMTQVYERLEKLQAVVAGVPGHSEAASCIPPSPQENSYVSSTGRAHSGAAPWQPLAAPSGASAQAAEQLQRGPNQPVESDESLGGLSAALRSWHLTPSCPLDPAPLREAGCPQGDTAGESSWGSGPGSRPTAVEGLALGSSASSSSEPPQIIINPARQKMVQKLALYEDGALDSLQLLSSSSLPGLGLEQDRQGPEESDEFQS
Sequence of FGFR2 mutant (N549H) (P21802 22-821 N549H): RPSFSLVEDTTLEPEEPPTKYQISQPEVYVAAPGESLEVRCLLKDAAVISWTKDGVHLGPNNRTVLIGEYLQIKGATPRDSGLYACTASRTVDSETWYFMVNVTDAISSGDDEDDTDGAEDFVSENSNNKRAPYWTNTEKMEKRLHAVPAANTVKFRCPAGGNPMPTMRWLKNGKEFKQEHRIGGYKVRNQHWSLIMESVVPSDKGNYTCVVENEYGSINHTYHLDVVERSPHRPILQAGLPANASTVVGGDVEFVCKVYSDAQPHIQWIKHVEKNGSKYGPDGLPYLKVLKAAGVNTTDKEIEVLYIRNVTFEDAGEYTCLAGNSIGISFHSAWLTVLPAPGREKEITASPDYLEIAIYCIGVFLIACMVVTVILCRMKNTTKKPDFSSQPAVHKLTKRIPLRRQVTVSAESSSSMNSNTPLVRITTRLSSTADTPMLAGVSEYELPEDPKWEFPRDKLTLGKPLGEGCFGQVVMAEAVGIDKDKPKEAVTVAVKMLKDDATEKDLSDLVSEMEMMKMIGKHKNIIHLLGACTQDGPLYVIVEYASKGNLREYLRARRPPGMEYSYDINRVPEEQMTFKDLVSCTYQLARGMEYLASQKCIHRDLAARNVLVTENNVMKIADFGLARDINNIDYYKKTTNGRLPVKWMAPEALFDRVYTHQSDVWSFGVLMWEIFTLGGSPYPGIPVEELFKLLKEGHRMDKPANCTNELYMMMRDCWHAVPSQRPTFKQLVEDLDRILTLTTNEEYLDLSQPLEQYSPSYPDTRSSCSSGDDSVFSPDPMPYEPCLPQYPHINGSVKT
Sequence of PCTAIRE1 (Q00536 whole entry): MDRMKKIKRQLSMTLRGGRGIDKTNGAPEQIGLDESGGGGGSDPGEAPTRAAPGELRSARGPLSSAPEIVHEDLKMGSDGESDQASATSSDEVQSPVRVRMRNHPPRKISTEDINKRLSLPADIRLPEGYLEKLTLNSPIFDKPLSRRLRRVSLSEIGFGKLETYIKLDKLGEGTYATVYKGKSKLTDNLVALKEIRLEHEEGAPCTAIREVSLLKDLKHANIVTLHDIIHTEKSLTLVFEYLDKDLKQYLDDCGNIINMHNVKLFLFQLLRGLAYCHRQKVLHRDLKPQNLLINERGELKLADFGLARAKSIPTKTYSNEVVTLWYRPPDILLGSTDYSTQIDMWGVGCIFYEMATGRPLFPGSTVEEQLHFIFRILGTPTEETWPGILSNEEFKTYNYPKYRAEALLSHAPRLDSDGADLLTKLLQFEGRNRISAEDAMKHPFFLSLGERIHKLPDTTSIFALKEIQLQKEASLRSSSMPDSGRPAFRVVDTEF
Sequence of PCTAIRE1 (Q8ND76 whole entry partner): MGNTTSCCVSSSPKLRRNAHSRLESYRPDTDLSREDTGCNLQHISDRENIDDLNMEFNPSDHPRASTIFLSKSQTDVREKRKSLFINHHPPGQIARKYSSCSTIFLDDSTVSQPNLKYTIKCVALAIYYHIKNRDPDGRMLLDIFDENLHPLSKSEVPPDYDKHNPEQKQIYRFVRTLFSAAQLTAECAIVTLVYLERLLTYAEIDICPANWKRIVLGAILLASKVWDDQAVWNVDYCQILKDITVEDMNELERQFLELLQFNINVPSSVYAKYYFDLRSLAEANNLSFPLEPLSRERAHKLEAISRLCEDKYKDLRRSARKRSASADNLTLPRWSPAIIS
Sequence of FMS (P07333 20-972): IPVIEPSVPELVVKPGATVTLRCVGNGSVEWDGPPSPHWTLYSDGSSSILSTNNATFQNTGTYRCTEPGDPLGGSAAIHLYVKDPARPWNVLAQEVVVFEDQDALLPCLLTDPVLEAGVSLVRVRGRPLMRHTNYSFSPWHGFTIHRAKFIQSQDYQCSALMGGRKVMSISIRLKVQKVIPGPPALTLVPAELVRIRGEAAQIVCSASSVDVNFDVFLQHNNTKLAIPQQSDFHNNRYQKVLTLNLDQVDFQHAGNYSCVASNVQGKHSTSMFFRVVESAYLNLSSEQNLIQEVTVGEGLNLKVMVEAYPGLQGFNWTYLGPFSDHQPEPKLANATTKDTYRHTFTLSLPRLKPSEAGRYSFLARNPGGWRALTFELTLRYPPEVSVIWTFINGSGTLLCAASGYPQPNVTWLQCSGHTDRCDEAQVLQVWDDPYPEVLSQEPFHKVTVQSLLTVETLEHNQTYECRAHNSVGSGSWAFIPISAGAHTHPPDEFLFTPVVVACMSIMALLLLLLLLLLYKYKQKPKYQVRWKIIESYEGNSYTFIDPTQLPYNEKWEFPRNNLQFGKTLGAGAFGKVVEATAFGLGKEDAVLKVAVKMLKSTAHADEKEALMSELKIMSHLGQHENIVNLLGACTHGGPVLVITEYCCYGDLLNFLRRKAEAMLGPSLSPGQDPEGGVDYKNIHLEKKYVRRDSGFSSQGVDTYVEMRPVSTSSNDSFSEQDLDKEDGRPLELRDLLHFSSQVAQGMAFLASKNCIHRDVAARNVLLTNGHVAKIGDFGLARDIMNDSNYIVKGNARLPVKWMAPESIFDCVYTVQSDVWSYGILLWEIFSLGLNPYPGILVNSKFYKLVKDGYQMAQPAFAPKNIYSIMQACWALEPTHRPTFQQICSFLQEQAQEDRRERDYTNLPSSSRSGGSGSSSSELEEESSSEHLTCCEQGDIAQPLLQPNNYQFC
Sequence of FGFR3 mutant (K650E) (P22607 23-806 K650E): as the sequence (P22607 23-806 V555M) above, with M533V, K628E counted along it
Sequence of FGFR3 (P22607 23-806): as the sequence (P22607 23-806 V555M) above, with M533V counted along it
Sequence of FGFR3 mutant (K650M) (P22607 23-806 K650M): as the sequence (P22607 23-806 V555M) above, with M533V, K628M counted along it
Sequence of MPSK1 (O75716 whole entry): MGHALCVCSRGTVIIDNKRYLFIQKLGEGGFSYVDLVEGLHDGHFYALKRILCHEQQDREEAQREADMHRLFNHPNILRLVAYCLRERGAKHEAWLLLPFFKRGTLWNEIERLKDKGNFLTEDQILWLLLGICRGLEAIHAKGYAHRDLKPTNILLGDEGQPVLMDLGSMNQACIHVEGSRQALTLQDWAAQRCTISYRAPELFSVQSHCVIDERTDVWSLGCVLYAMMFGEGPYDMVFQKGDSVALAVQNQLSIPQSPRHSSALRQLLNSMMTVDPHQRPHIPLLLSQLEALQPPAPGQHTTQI

inhibition at 1 µM (PHKg1): ≥ 90%
inhibition at 1 µM (FGFR3): ≥ 90%
inhibition at 1 µM (IRAK1): ≥ 90%
inhibition at 1 µM (MPSK1): ≥ 90%
inhibition at 1 µM (CLK2): ≥ 90%
inhibition at 1 µM (CDK6): ≥ 90%
inhibition at 1 µM (FMS): ≥ 90%
inhibition at 1 µM (PCTAIRE1): ≥ 90%
inhibition at 1 µM (TAO2): ≥ 90%
inhibition at 1 µM (ROS): ≥ 90%
GI50 [1]: 1000 to 10000 nM
GI50 [2]: 1000 to 10000 nM
GI50 [3]: < 1000 nM
rate (%) of inhibition, CYP2C9 (CYP2C9): 70.2%
rate (%) of inhibition, CYP2D6 (CYP2D6): 80.9%
rate (%) of inhibition, CYP2C19 (CYP2C19): 26.7%
rate (%) of inhibition, CYP1A2 (CYP1A2): 71.4%
rate (%) of inhibition, CYP3A4 (CYP3A4): 17.0%
IC50 (FGFR3 mutant (K650E)): < 100 nM
IC50 (FGFR2 mutant (V564F)): 100 to 1000 nM
IC50 (FGFR3 mutant (K650M)): < 100 nM
IC50 (FGFR2 mutant (N549H)): < 100 nM
IC50 (FGFR3 mutant (V555M)): 100 to 1000 nM
SMILES: CCN1CCN(c2ccc(Nc3ncnc(-c4cccnc4Nc4c(Cl)c(OC)cc(OC)c4Cl)n3)cc2)CC1 [Example 1]
GI50 (AN3-CA): < 1000 nM
